# From patent US20190194179A1, “ANTIBIOTIC COMPOUNDS” (DISCUVA LTD., priority 2016, published 2019)
# Like-named read-outs stand apart in the source and are kept apart here.
# Tests used:
# Format in all cases: cell-based
# Neisseria gonorrhoeae = experiment: EC50 determination: plate-based broth growth assay (absorbance at 600 nm) of Neisseria gonorrhoeae; settings: absorbance 600 nm after 20 hours at 37° C./5% CO2, read-out: IC50 (Inhibitory concentration) against Neisseria gonorrhoeae
# Procedure, shortened: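 Mid-log culture diluted to ~10^5 cells/ml as inoculum and grown 20 hours at 37° C./5% CO2 across a 10-point compound dilution series. Growth read as absorbance at 600 nm; EC50 taken from transformed data as the concentration giving 50% response relative to no-compound controls.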
# Enterococcus Spp. = experiment: EC50 determination: broth growth assay of Enterococcus Spp. (Isosensitest broth); settings: Table 1, panel of bacteria, 37° C.
# Method: (§1) Actively growing Neisseria gonorrhoeae on GC agar (based on; Spence et. al. (2008): Curr. Protoc. Microbiol. 8:4A.1.1-4A.1.26) plates are harvested and transferred to GC broth (based on; Spence et al (2008): Curr. Protoc. Microbiol. 8:4A.1.1-4A.1.26) to generate a liquid stock. This culture is allowed to establish and grow to mid-log phase (at 37° C./5% CO2), finally this culture is diluted (˜10^5 cells/ml) to generate a seed inoculum to establish plate-based broth assays. EC50 values were determined by assaying growth (absorbance read at 600 nm, after 20 hours at 37° C./5% CO2) of Neisseria gonorrhoeae across a 10-point dilution series of the test compound. The EC50 value is determined from transformed data to identify the concentration of compound giving a 50% response relative to control samples (no compound).
# (§2) EC50 determination for Staphylococcus aureus and Enterococcus Spp. followed a similar procedure but were conducted using Isosensitest broth (Oxoid) with incubations at 37° C. in atmospheric air. Final absorbance reads were conducted during the late exponential growth phase.
# Staphylococcus aureus = experiment: EC50 determination: broth growth assay of Staphylococcus aureus (Isosensitest broth); settings: Table 1, panel of bacteria, 37° C., read-out: IC50 concentration against Staphylococcus aureus
# Method: as §1, §2
# [1] = Enterococcus faecalis, read-out: IC50 concentration against Entercoccus faecalis
# [2] = Enterococcus faecium, read-out: IC50 concentration against Enterococcus faecium
SMILES,IC50 (Neisseria gonorrhoeae),IC50 (Enterococcus Spp.; [1]),IC50 (Enterococcus Spp.; [2]),IC50 (Staphylococcus aureus)
"Clc1ccc2nc(Nc3nc4cnccc4o3)oc2c1 [Example 159, N-(6-Chlorobenzo[d]oxazol-2-yl)oxazolo[4,5-c]pyridin-2-amine]",≤ 100000 nM,≤ 100 µM,≤ 100 µM,≤ 100 µM
"FC(F)(F)c1ccc2oc(Nc3nc4cnccc4o3)nc2c1 [Example 60, N-(5-(triFluoromethyl)benzo[d]oxazol-2-yl)oxazolo[4,5-c]pyridin-2-amine]",≤ 100 nM,≤ 1 µM,≤ 10 µM,≤ 10 µM
"Cc1nnc(Nc2nc3cc(C(F)(F)F)ccc3o2)[nH]1 [Example 117, N-(5-Methyl-4H-1,2,4-triazol-3-yl)-5-(trifluoromethyl)benzo[d]oxazol-2-amine]",≤ 1000 nM,≤ 10 µM,≤ 10 µM,≤ 1 µM
"FC(F)(F)c1ccc2nc(Nc3nnc(C4CC4)o3)oc2c1 [Example 105, N-(5-Cyclopropyl-1,3,4-oxadiazol-2-yl)-6-(trifluoromethyl)benzo[d]oxazol-2-amine]",≤ 100 nM,≤ 1 µM,≤ 1 µM,≤ 1 µM
"FC(F)(F)c1cc2oc(Nc3nc4cc(Cl)ccc4o3)nc2cn1 [Example 165, N-(5-Chlorobenzo[d]oxazol-2-yl)-6-(trifluoromethyl) oxazolo[4,5-c]pyridin-2-amine]",≤ 1000 nM,≤ 10 µM,≤ 10 µM,≤ 10 µM
"FC(F)(F)c1cc2[nH]c(Nc3nc4ccccc4o3)nc2cn1 [Example 170, N-(6-(Trifluoromethyl)-1H-imidazo[4,5-c]pyridin-2-yl)benzo[d]oxazol-2-amine]",≤ 1000 nM,≤ 10 µM,≤ 10 µM,≤ 10 µM
"FC(F)(F)c1cc2nc(Nc3nnc(CN4CCCC4)o3)oc2cc1Cl [Example 80, 6-Chloro-N-(5-(pyrrolidin-1-ylmethyl)-1,3,4-oxadiazol-2-yl)-5-(trifluoromethyl)benzo[d]oxazol-2-amine]",≤ 100 nM,≤ 1 µM,≤ 10 µM,≤ 1 µM
"Cn1ccc(Nc2nc3cc(C(F)(F)F)ccc3o2)n1 [Example 38, N-(1-Methyl-1H-pyrazol-3-yl)-5-(trifluoromethyl)benzo[d]oxazol-2-amine]",≤ 10000 nM,,,
"CC(C)c1nnc(Nc2nc3cc(C(F)(F)F)ccc3o2)o1 [Example 108, N-(5-Isopropyl-1,3,4-oxadiazol-2-yl)-5-(trifluoromethyl)benzo[d]oxazol-2-amine]",≤ 1000 nM,,,
"Cc1nnc(Nc2nc3c(F)cccc3o2)o1 [Example 62, 4-Fluoro-N-(5-methyl-1,3,4-oxadiazol-2-yl)benzo[d]oxazol-2-amine]",≤ 1000 nM,,,
"Cc1cc(Nc2nc3ccc(Cl)cc3o2)no1 [Example 172, 6-Chloro-N-(5-methylisoxazol-3-yl)benzo[d]oxazol-2-amine]",≤ 1000 nM,,,
"COC(=O)c1ccc2[nH]c(Nc3nnc(C)o3)nc2c1 [Example 84, Methyl 2-((5-methyl-1,3,4-oxadiazol-2-yl)amino)-1H-benzo[d]imidazole-5-carboxylate]",≤ 10000 nM,,,
"Cc1nnc(Nc2nc3c(C)cccc3n2C)o1 [Example 90, N-(1,4-Dimethyl-1H-benzo[d]imidazol-2-yl)-5-methyl-1,3,4-oxadiazol-2-amine]",≤ 10000 nM,,,
"O=C(NC1CC1)c1csc(Nc2nc3ccc(Cl)cc3o2)n1 [Example 20, 2-((6-Chlorobenzo[d]oxazol-2-yl)amino)-N-cyclopropylthiazole-4-carboxamide]",≤ 100 nM,,,
"Cc1nnc(Nc2nc3c(Cl)cc(Cl)cc3o2)[nH]1 [Example 123, 4,6-Dichloro-N-(5-methyl-4H-1,2,4-triazol-3-yl)benzo[d]oxazol-2-amine]",≤ 1000 nM,,,
"FC(F)(F)c1ccc2[nH]c(Nc3nnco3)nc2c1 [Example 68, N-(5-(Trifluoromethyl)-1H-benzo[d]imidazol-2-yl)-1,3,4-oxadiazol-2-amine]",≤ 1000 nM,,,
"FC(F)(F)c1ccc2oc(Nc3nncs3)nc2c1 [Example 14, N-(1,3,4-Thiadiazol-2-yl)-5-(trifluoromethyl)benzo[d]oxazol-2-amine]",≤ 1000 nM,,,
"Cc1nnc(Nc2nc3ccc(Cl)cc3o2)o1 [Example 109, 6-Chloro-N-(5-methyl-1,3,4-oxadiazol-2-yl)benzo[d]oxazol-2-amine]",≤ 100 nM,,,
"FC(F)(F)c1ccc2oc(Nc3nnco3)nc2c1 [Example 67, N-(1,3,4-Oxadiazol-2-yl)-5-(trifluoromethyl)benzo[d]oxazol-2-amine]",≤ 100 nM,≤ 10 µM,≤ 1 µM,≤ 1 µM
"Clc1ccc2nc(Nc3nnco3)[nH]c2c1 [Example 91, N-(6-Chloro-1H-benzo[d]imidazol-2-yl)-1,3,4-oxadiazol-2-amine]",≤ 100000 nM,,,
"Clc1ccc2nc(Nc3nnc(CN4CCCC4)[nH]3)oc2c1 [Example 132, 6-Chloro-N-(5-(pyrrolidin-1-ylmethyl)-4H-1,2,4-triazol-3-yl)benzo[d]oxazol-2-amine]",≤ 1000 nM,,,
"FC1(F)CCN(Cc2nnc(Nc3nc4cc(C(F)(F)F)ccc4o3)o2)C1 [Example 74, N-(5-((3,3-diFluoropyrrolidin-1-yl)methyl)-1,3,4-oxadiazol-2-yl)-5-(trifluoromethyl)benzo[d]oxazol-2-amine]",≤ 1000 nM,,,
"Fc1cc(Cl)cc2oc(Nc3nnco3)nc12 [Example 176, 6-Chloro-4-fluoro-N-(1,3,4-oxadiazol-2-yl)benzo[d]ox-azol-2-amine]",≤ 1000 nM,,,
"O=C1CCCN1c1ccc2nc(Nc3nnco3)oc2c1 [Example 212, 1-(2-((1,3,4-oxadiazol-2-yl)amino)benz-o[d]oxazol-6-yl)pyrrolidin-2-one]",≤ 100000 nM,,,
"COc1cc2nc(Nc3nnco3)oc2cc1Cl [Example 204, 6-chloro-5-methoxy-N-(1,3,4-oxadiazol-2-yl)benzo[d]oxa-zol-2-amine]",≤ 1000 nM,,,
"FC(F)(F)Oc1ccc2nc(Nc3nnco3)oc2c1 [Example 210, N-(1,3,4-Oxadiazol-2-yl)-6-(trifluoromethoxy) benzo[d]ox-azol-2-amine]",≤ 100 nM,,,
"Cc1sc(Nc2nc3cc(C(F)(F)F)ccc3o2)nc1C(=O)NC1CC1 [Example 25, N-Cyclopropyl-5-methyl-2-((5-(trifluoromethyl)benzo[d]oxazol-2-yl)amino)thiazole-4-carboxamide]",≤ 1000 nM,,,
"Cn1c(Nc2nnco2)nc2ccc(Cl)cc21 [Example 92, N-(6-Chloro-1-methyl-1H-benzo[d]imidazol-2-yl)-1,3,4-oxadiazol-2-amine]",≤ 100000 nM,,,
"Cc1nnc(Nc2nc3ccc(C(F)(F)F)cc3[nH]2)o1 [Example 83, 5-Methyl-N-(6-(trifluoromethyl)-1H-benzo[d]imidazol-2-yl)-1,3,4-oxadiazol-2-amine]",≤ 1000 nM,,,
"O=C(NC1CC1)c1csc(Nc2nc3cc(Cl)ccc3o2)n1 [Example 17, 2-((5-Chlorobenzo[d]oxazol-2-yl)amino)-N-cyclopropylthiazole-4-carboxamide]",≤ 1000 nM,,,
